In US12577537B2, “Method for culturing primary cancer cells through simulated microgravity-induced reprogramming and applications thereof” (SHANDONG UNIVERSITY, priority 2024, dated 2026):

What was measured:
[1] = tested on: normal breast tissue cells; test: Drug sensitivity test on SMGIR-cultured normal breast tissue (cancer-adjacent) cells from patients; type: cell-based; conditions: Homo sapiens
Excerpt: (§1) Wherein, FIGS. 12D to 12I show the dose-response relationships of breast cancer cells (D, F, H) and normal breast tissue cells (E, G, I) from three patients (38, 7, and 71) to epirubicin; FIGS. 12J to 12O show the dose-response relationships of breast cancer cells (J, L, N) and normal breast tissue cells (K, M, O) from the same three patients (38, 7, and 71) to cyclophosphamide.
(§2) The inventors conducted drug-related experiments using the cancer cell models prepared by the method of the present application. FIG. 12A lists 8 types of common drugs used in clinical treatment of breast cancer, including epirubicin, cyclophosphamide, docetaxel, etc. This example selected two of them (FIG. 12B: epirubicin, FIG. 12C: cyclophosphamide) to conduct drug sensitivity tests on breast cancer cells from different patients cultivated in Example 5.

breast cancer cells = test: Drug sensitivity test on SMGIR-cultured breast cancer cells from patients; type: cell-based; conditions: Homo sapiens
Excerpt: as §1, §2

in vitro = conditions: human
Excerpt: as §1, §2

| IC50 (breast cancer cells; 12 h, breast cancer cells from patient 71, SMGIR-cultured (FIG. 12H)) [nM] | IC50 (breast cancer cells; breast cancer cells from patient 7, SMGIR-cultured (FIG. 12F)) [nM] | IC50 (breast cancer cells; breast cancer cells from patient 38, SMGIR-cultured (FIG. 12D)) [nM] | Compound | IC50 ([1]; normal breast tissue cells from patient 7, SMGIR-cultured (FIG. 12G)) [nM] | IC50 ([1]; normal breast tissue cells from patient 38, SMGIR-cultured (FIG. 12E)) [nM] | IC50 ([1]; normal breast tissue cells from patient 71, SMGIR-cultured (FIG. 12I)) [nM] | viability at 4000 μM (in vitro) [%] |
| --- | --- | --- | --- | --- | --- | --- | --- |
| 454 | 583 | 369 | COc1cccc2c1C(=O)c1c(O)c3c(c(O)c1C2=O)C[C@@](O)(C(=O)CO)C[C@@H]3O[C@H]1C[C@H](N)[C@@H](O)[C@H](C)O1 [epirubicin] | 651 | 357 | 766 | – |
| – | – | – | O=P1(N(CCCl)CCCl)NCCCO1 (stereo not shown) [cyclophosphamide] | – | – | – | 70 to 80 |
